Laboratory results as given in patent publication US20260125411A1, “COMPOUND EMITTING LIGHT UNDER SPECIFIC CONDITIONS, AND METHOD FOR DETECTING CANCER STEM CELLS USING SAME” (Kyoto University, priority 2022, published 2026).

Key:
SUIT-2 cells = assay: Observation with confocal microscope, SUIT-2; format: cell-based, human; conditions: SUIT-2, FDG 20 μM, ex 488 nm, detection 500-600 nm
Experimental: (§1) Fluorescence imaging was performed using a confocal microscope LSM710 (Carl Zeiss AG). The excitation light used was at 488 nm (detection wavelength: 500-600 nm) and 633 nm (detection wavelength: 647-759 nm).
(§2) The cells were seeded in a 35 mm micro-Dish (μ-Dish 35 mm, high, ibidi, Germany) and cultured for 24 hours, followed by washing with DMEM (for SUIT-2 cells, NIH3T3 cells, HUVEC cells) or RPMI-1640 (for KATO-3 cells) containing no phenol red and no FBS. A dye and Aldefluor™ (StemCell Technologies, Inc., Canada) or FDG (Sigma-Aldrich, USA) were dissolved in DMSO and diluted in the medium. The cells were treated with 2 mL of the medium containing the dye and Aldefluor™ or FDG and cultured in air containing 5% CO2 at 37° C. for one hour, followed by observation with the confocal microscope. The number of cells seeded was 10×10^5 for KATO-3 cells, and 8×10^5 for the other cell types. The final concentrations of CHO_βgal, Aldefluor™, and FDG were 20 μM, 1 μM, and 20 μM, respectively. The DMSO content was 2%. FIG. 4 and FIG. 5 show the measurement results.

KATO-III cells = assay: Observation with confocal microscope, KATO-III; format: cell-based, human; conditions: FDG 20 μM, ex 488 nm, detection 500-600 nm
Experimental: as §1, §2

`O=C1OC2(c3ccc(O[C@@H]4O[C@H](CO)[C@H](O)[C@H](O)[C@H]4O)cc3Oc3cc(O[C@@H]4O[C@H](CO)[C@H](O)[C@H](O)[C@H]4O)ccc32)c2ccccc21` [FDG, fluorescein di-β-D-galactopyranoside] was tested, and the emission in cells (SUIT-2 cells) was “emission was observed throughout the cells” and the emission in cells (KATO-III cells) was “emission was observed throughout the cells”.
